Like-named read-outs stand apart in the source and are kept apart here.
What was measured:
GABA-T [1] = details: known compounds, literature; cited from earlier work
brain levels of GABA = details: known compounds, literature; cited from earlier work
GABA-T [2] = assay: Biochemical tests for irreversible inhibition of GABA-T; details: biochemical / biological tests
GABA-T [3] = assay: GABA-T activity in mouse brain after a single i.p. or oral dose; assay type: in vivo, mice; details: for GABA-T Activity (calculated as percent inhibition): 6 h, Table 2
Method: Male albino CD1 mice each weighing approximately 34 g at commencement of the test are given an i.p. injection of the test compound in aqueous solution daily for seven consecutive days. Half of the animals are killed by decapitation 24 hours after the last dose fo the test compound. The other half of the animals are observed for up to 12 days for toxicity (as indicated by weight loss and deaths). Control animals receive an injecion of the vehicle only.
The brains are removed from the dead mice and are divided into two portions by sagittal section. One half is used for the measurement of GABA-T activity while the other is used for measuring GABA content. The GABA-T activity is measured using known methods as described by M. Jung et al., J.Neurochem., 28, 717 (1977) and 29, 797 (1977). GABA content is measured by perchloric acid or trichloroacetic acid extracts using an amino acid analyzer equiped with a fluorescence detector.
A. The procedure of Example 3 is repeated using a single i.p. dose of the test compound and killing the mice 6 hours after the i.p. injection.
(§1) B. The procedure of Part A is repeated using both oral and i.p. doses of (R,S)-allenyl GABA.

[4] = Toxicity (lethality) after i.p. or oral administration to mice; details: for No. of dead animals Day 4: Example 5 Part B
Method: A. The toxicity of (S)-allenyl GABA and (R,S)-allenyl GABA was determined after i.p. administration to male mice. The mice were observed up to eight days after injection.
B. The toxicity of (S)-allenyl GABA ("S") and (R,S)-allenyl GABA ("R,S") was determined as in Part A after both oral and i.p. administration.

GABA levels in the brain = assay: GABA level in mouse brain after a single i.p. or oral dose; assay type: in vivo, mice; details: for GABA Level (calculated as percent of control): 6 h
Method: […] […] The other half of the animals are observed for up to 12 days for toxicity (as indicated by weight loss and deaths). Control animals receive an injecion of the vehicle only.
The brains are removed from the dead mice and are divided into two portions by sagittal section. One half is used for the measurement of GABA-T activity while the other is used for measuring GABA content. […] GABA content is measured by perchloric acid or trichloroacetic acid extracts using an amino acid analyzer equiped with a fluorescence detector.
as §1

Structure (SMILES): C#CC(N)CCCN (stereo not shown) [1-acetylene-1,4-butanediamine]
- irreversible inhibition of GABA-T (GABA-T [1]): irreversible inhibitors of GABA-T
- elevation of brain levels of GABA (brain levels of GABA): elevate brain levels of GABA

Structure (SMILES): C=CC(N)CCC(=O)O (stereo not shown) [4-aminohex-5-enoic acid ("vinyl GABA"), 4-aminohex-5-enoic acid]
- irreversible inhibition of GABA-T (GABA-T [1]): irreversible inhibitors of GABA-T
- elevation of brain levels of GABA (brain levels of GABA): elevate brain levels of GABA

Structure (SMILES): C#CC(N)CCC(=O)O (stereo not shown) [4-aminohex-5-ynoic acid]
- irreversible inhibition of GABA-T (GABA-T [1]): irreversible inhibitors of GABA-T
- elevation of brain levels of GABA (brain levels of GABA): elevate brain levels of GABA

Structure (SMILES): C=C=C[C@H](N)CCC(=O)O [(R)-allenyl GABA]
- irreversible inhibition of GABA-T (GABA-T [2]): not an irreversible inhibitor of GABA-T
- irreversible inhibition of GABA-T (GABA-T [2]; listed as (R)(-)-isomer): not active

Structure (SMILES): C=C=C[C@@H](N)CCC(=O)O [(S)-allenyl GABA, (S)-4-amino-hepta-5,6-dienoic acid]
- irreversible inhibition of GABA-T in vivo (GABA-T [3]; in vivo): produce irreversible inhibition of GABA-T
- GABA-T Activity (calculated as percent inhibition) (GABA-T [3]; single i.p. dose 0.77 mM/kg (135.9 mg/kg)): 79 percent inhibition
- GABA-T Activity (calculated as percent inhibition) (GABA-T [3]; single i.p. dose 1.55 mM/kg (273.5 mg/kg)): 92 percent inhibition
- GABA-T Activity (calculated as percent inhibition) (GABA-T [3]; single i.p. dose 3.10 mM/kg (547.2 mg/kg)): 96 percent inhibition
- No. of dead animals ([4]; i.p., 250 mg/kg, Day 1): 0/5
- No. of dead animals ([4]; i.p., 250 mg/kg, Day 2): 0/5
- No. of dead animals ([4]; i.p., 250 mg/kg, Day 3): 0/5
- No. of dead animals ([4]; i.p., 250 mg/kg, Day 4): 0/5
- No. of dead animals ([4]; i.p., 250 mg/kg, Day 8): 0/5
- No. of dead animals ([4]; i.p., 375 mg/kg, Day 1): 0/5
- No. of dead animals ([4]; i.p., 375 mg/kg, Day 2): 0/5
- No. of dead animals ([4]; i.p., 375 mg/kg, Day 3): 0/5
- No. of dead animals ([4]; i.p., 375 mg/kg, Day 4): 0/5
- No. of dead animals ([4]; i.p., 375 mg/kg, Day 8): 0/5
- No. of dead animals ([4]; i.p., 500 mg/kg, Day 1): 0/5
- No. of dead animals ([4]; i.p., 500 mg/kg, Day 2): 0/5
- No. of dead animals ([4]; i.p., 500 mg/kg, Day 3): 0/5
- No. of dead animals ([4]; i.p., 500 mg/kg, Day 4): 0/5
- No. of dead animals ([4]; i.p., 500 mg/kg, Day 8): 0/5
- No. of dead animals ([4]; i.p., 750 mg/kg, Day 1): 0/5
- No. of dead animals ([4]; i.p., 750 mg/kg, Day 2): 0/5
- No. of dead animals ([4]; i.p., 750 mg/kg, Day 3): 0/5
- No. of dead animals ([4]; i.p., 750 mg/kg, Day 4): 0/5
- No. of dead animals ([4]; i.p., 750 mg/kg, Day 8): 0/5
- toxicity after i.p. administration ([4]; i.p., very large doses corresponding to maximal biological effects): non-toxic after i.p. administration of very large doses
- toxicity by oral administration ([4]; oral): non-toxic by oral administration
- No. of dead animals Day 4 ([4]; oral, 500 mg/kg, Day 4): 0/5
- No. of dead animals Day 4 ([4]; oral, 750 mg/kg, Day 4): 1/5
- relative potency for the elevation of GABA levels (GABA levels in the brain; (S) versus (R,S), single i.p. dose, Table 2): twice the potency of (R,S)-allenyl GABA
- elevation of GABA levels in the CNS (GABA levels in the brain; administered orally or parenterally): can elevate GABA levels significantly in the CNS
- effectiveness by oral versus i.p. route (GABA levels in the brain; oral vs i.p., Table 3): equally effective when given by the oral and i.p. routes of administration
- GABA Level (calculated as percent of control) (GABA levels in the brain; single i.p. dose 0.77 mM/kg (135.9 mg/kg), Table 2): 540% of control
- GABA Level (calculated as percent of control) (GABA levels in the brain; single i.p. dose 1.55 mM/kg (273.5 mg/kg), Table 2): 670% of control
- GABA Level (calculated as percent of control) (GABA levels in the brain; single i.p. dose 3.10 mM/kg (547.2 mg/kg), Table 2): 730% of control
- irreversible inhibition of GABA-T (GABA-T [2]): irreversible inhibitor of GABA-T

— US4454156A, “4-Amino-hepta-5,6-dienoic acid” (Merrell-Toraude et Compagnie, priority 1982, dated 1984)
